Laboratory results published in PubChem BioAssay (NCI).
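1) Cells in 96-well plates. 2) Compound, 48 h, 5 concentrations. 3) Linear interpolation between surrounding doses. 4) Unreached endpoint = highest concentration. TGI is the concentration that stops growth completely.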

Tests used:
Test in all cases: NCI anticancer screen, dose series, 48 h
HS 578T breast = system: HS 578T breast
HCC-2998 colon = system: HCC-2998 colon
SK-MEL-28 melanoma = system: SK-MEL-28 melanoma
SW-620 colon = system: SW-620 colon
U251 CNS = system: U251 CNS
HL-60(TB) leukemia = system: HL-60(TB) leukemia
SK-OV-3 ovarian = system: SK-OV-3 ovarian
MDA-MB-231 breast = system: MDA-MB-231 breast
UO-31 renal = system: UO-31 renal
SNB-75 CNS = system: SNB-75 CNS

SMILES | TGI (HS 578T breast) [µM] | TGI (HCC-2998 colon) [µM] | TGI (SK-MEL-28 melanoma) [µM] | TGI (SW-620 colon) [µM] | TGI (U251 CNS) [µM] | TGI (HL-60(TB) leukemia) [µM] | TGI (SK-OV-3 ovarian) [µM] | TGI (MDA-MB-231 breast) [µM] | TGI (UO-31 renal) [µM] | TGI (SNB-75 CNS) [µM]
CC(NNC(=O)CC(=O)N(C(=O)c1ccccc1)c1ccc(Cl)cc1)c1cc2ccccc2oc1=O (stereo not given) | > 10 | > 10 | > 10 | > 10 | > 10 | > 10 | > 10 | > 10 | 0.275 | > 10
CN(CCN(C)C(=S)NN)C(=S)NN | > 100 | > 100 | > 100 | > 100 | > 100 | > 100 | > 100 | > 100 | > 100 | > 100
CC(CCC#N)(CCC#N)C(=O)CC(O)(C(F)(F)F)C(F)(F)F | 60.6 | 31.3 | 27.2 | 6.9 | 33.2 | 3.99 | > 100 | 14.2 | 13.1 | 34.5
O=P(O)(Cc1ccccc1)c1ccccc1-c1ccccc1 | > 100 | > 100 | > 100 | > 100 | > 100 | > 100 | > 100 | > 100 | > 100 | > 100
COc1ccc(CN(Cc2ccc(OC)cc2)C(=O)CC2(O)C=CCC2)cc1 (stereo not given) | > 100 | > 100 | > 100 | > 100 | > 100 | > 100 | > 100 | > 100 | > 100 | > 100
CN(C)/C=N/n1c2ccccc2c2ccccc21 | > 100 | > 100 | > 100 | > 100 | > 100 | > 100 | > 100 | > 100 | > 100 | > 100
CC(C)(C)NC(=O)N1N=C(c2ccccc2)C1c1ccccc1 (stereo not given) | > 100 | > 100 | > 100 | > 100 | > 100 | > 100 | > 100 | > 100 | 63.1 | > 100
CCO/C=N/NC(=O)CSc1nc2ccc(I)cc2c(=O)n1Cc1ccccc1 | > 100 | > 100 | > 100 | > 100 | > 100 | > 100 | > 100 | > 100 | > 100 | > 100
COc1ccc(OC)c(C2Cc3cnc4nc(N)nc(N)c4c3C2)c1 (stereo not given) | > 100 | 41.9 | > 100 | > 100 | 47.3 | 40 | > 100 | 52.6 | > 100 | 47.5
CC(C)(C)C(=O)OC(N)/C=C/c1ccccc1 (stereo not given) | > 100 | > 100 | > 100 | > 100 | > 100 | > 100 | > 100 | > 100 | > 100 | > 100
CCOC(=O)NC1CN2CCC1CC2 (stereo not given) | > 100 | > 100 | > 100 | > 100 | > 100 | > 100 | > 100 | > 100 | > 100 | > 100
O=[N+]([O-])c1ccc(S(=O)(=O)N=Ic2ccccc2)cc1 | > 100 | > 100 | > 100 | > 100 | > 100 | > 100 | > 100 | > 100 | > 100 | > 100
COc1cc(C2SCC(=O)N2c2ccc(Cl)c(Cl)c2)cc(OC)c1OC (stereo not given) | > 100 | > 100 | > 100 | > 100 | > 100 | > 73.9 | > 100 | > 100 | > 100 | > 100
Cc1cn(CCCCCOC(=O)NC(CCCN=C(N)N)C(=O)O)c(=O)[nH]c1=O (stereo not given) | 71.9 | > 100 | > 100 | > 100 | > 100 | > 100 | > 100 | > 100 | > 100 | > 100
O=C(c1cc(Cl)cc(Cl)c1)N1CCN(C(=O)c2cc(Cl)cc(Cl)c2)C1=S | > 100 | 31 | > 54.5 | > 50.5 | 26.4 | 6.28 | 29.8 | 31.9 | 6.08 | 27.8
COc1ccc(CCN=C2OCc3ccccc32)cc1OC | > 100 | > 100 | > 100 | > 100 | > 100 | 32.6 | > 100 | > 100 | > 100 | > 100
CC(C)=C1C(=O)C[C@]2(C)C[C@H]3/C(=C(/C)CCC12)CC[C@@]3(C)O (stereo not given in full) | > 50 | > 50 | > 50 | > 50 | > 50 | 28.6 | > 50 | > 50 | > 50 | > 50
